In one assay the target is Acetylcholinesterase (Electrophorus electricus, UniProt O42275). Briefly: Anticholinesterase Activity Assays. Conditions: pH 8. The procedure: (§1) The substrates of the reaction were acetylthiocholine iodide and butyrylthiocholine iodide. 5,5'-dithio-bis(2-nitrobenzoic) acid (DTNB) was used for the measurement of the anticholinesterase activity. The solutions of the samples and galantamine in n-propanol were prepared at concentration of 4000 µg/mL. […] 10 µL of DTNB solution was prepared by adding 2.0 mL of pH 7.0 and 4.0 mL of pH 8.0 phosphate buffers to a mixture of 1.0 mL of 16 mg/mL DTNB and 7.5 mg/mL NaHCO3 in pH 7.0 phosphate buffers. The reaction was initiated by the addition of 10 µL (7.1 mM) acetylthiocholine iodide (or 0.79 mM butyrylthiocholine iodide). Propyl alcohol was used as a solvent to controls. The hydrolysis of these substrates was monitored at 412 nm.
Chain of Acetylcholinesterase (O42275 whole entry): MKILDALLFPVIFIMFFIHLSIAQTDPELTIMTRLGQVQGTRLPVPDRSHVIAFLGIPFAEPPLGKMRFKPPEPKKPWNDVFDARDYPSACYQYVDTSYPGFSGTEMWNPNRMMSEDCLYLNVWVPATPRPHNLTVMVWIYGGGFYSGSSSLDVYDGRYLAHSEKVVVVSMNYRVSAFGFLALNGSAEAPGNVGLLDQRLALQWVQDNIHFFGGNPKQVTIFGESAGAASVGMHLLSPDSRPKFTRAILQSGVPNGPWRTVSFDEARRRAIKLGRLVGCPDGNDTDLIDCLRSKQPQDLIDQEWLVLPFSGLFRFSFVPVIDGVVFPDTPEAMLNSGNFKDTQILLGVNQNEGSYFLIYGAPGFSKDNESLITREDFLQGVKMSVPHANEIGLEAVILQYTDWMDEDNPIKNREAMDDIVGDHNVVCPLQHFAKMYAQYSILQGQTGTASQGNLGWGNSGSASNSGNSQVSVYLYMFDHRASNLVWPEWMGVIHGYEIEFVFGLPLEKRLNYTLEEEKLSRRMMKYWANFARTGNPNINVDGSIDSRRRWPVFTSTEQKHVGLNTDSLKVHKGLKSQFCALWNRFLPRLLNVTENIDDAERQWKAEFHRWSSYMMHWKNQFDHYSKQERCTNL

For assay [1], the target named is Carboxylic ester hydrolase (Equus caballus, UniProt Q9N1N9). Briefly: Anticholinesterase Activity Assays. The following applies: pH 8. The procedure: as §1
Chain of Carboxylic ester hydrolase (Q9N1N9 whole entry): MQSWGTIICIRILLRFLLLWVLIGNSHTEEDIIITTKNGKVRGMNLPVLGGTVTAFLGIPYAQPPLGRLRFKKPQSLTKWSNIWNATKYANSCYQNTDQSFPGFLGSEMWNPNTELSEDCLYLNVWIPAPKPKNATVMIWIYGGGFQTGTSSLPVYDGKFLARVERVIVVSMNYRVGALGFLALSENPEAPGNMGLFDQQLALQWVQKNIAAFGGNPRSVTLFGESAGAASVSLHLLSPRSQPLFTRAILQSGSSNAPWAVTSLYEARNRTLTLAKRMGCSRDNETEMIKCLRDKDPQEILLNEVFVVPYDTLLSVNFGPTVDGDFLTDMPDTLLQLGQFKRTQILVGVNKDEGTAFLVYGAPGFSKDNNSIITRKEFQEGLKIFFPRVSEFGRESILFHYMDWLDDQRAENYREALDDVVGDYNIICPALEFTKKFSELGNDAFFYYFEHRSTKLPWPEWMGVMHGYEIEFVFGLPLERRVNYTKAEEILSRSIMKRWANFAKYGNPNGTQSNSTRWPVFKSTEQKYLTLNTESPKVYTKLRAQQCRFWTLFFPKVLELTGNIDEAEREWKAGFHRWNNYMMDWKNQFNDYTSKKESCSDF

Consider 27 molecules from BindingDB's records for doi:10.1016/j.bioorg.2015.02.002 (Bezmialem Vakif University, 2015).

For orientation: pIC50 means the IC50 on a negative log10 scale, so that one unit is a factor of ten. Higher therefore signals a small IC50.

pIC50: −log10 of the molar value.

Consider `COc1cccc2cc(-c3csc(NC(=O)Nc4cccc([N+](=O)[O-])c4)n3)c(=O)oc12` [1-(4-(8-Methoxy-2-oxo-2H-chromen-3-yl)thiazol-2-yl)-3-(3-nitrophenyl)urea (e18)], for which the pIC50 on Acetylcholinesterase was 4.05; in assay [1], 4.11.
Take `COc1cccc2cc(-c3csc(NC(=S)Nc4ccc(Cl)cc4)n3)c(=O)oc12` [1-(4-(8-Methoxy-2-oxo-2H-chromen-3-yl)thiazol-2-yl)-3-(4-chlorophenyl)thiourea (f8)]: the negative logarithm of the IC50 (pIC50) at Acetylcholinesterase is 5.34; in assay [1], 4.92.
Take `COc1cccc2cc(-c3csc(NC(=O)Nc4ccc(Cl)cc4)n3)c(=O)oc12` [1-(4-(8-Methoxy-2-oxo-2H-chromen-3-yl)thiazol-2-yl)-3-(4-chlorophenyl)urea (e24)]: the values for the pIC50 (against Acetylcholinesterase; in assay [1]) were 3.97 and 4.15, respectively.
For `COc1cccc2cc(-c3csc(NC(=S)Nc4ccc(F)cc4)n3)c(=O)oc12` [1-(4-(8-Methoxy-2-oxo-2H-chromen-3-yl)thiazol-2-yl)-3-(4-fluorophenyl)thiourea (f7)], the figures for the pIC50 (against Acetylcholinesterase; in assay [1]) were 4.63 and 4.34, respectively.
Taken in the same sequence, the figures for `COc1ccc(NC(=S)Nc2nc(-c3cc4cccc(OC)c4oc3=O)cs2)cc1` [1-(4-(8-Methoxy-2-oxo-2H-chromen-3-yl)thiazol-2-yl)-3-(4-methoxyphenyl)thiourea (f3)] were 4.39 and 4.51.
Take `COc1ccc(NC(=O)Nc2nc(-c3cc4cccc(OC)c4oc3=O)cs2)cc1` [1-(4-(8-Methoxy-2-oxo-2H-chromen-3-yl)thiazol-2-yl)-3-(4-methoxyphenyl)urea (e15)]: the results for the pIC50 (against Acetylcholinesterase; in assay [1]) were 3.92 and 4.00, respectively.
As to `COc1cccc2cc(-c3csc(NC(=O)Nc4ccc([N+](=O)[O-])cc4)n3)c(=O)oc12` [1-(4-(8-Methoxy-2-oxo-2H-chromen-3-yl)thiazol-2-yl)-3-(4-nitrophenyl)urea (e19)], the pIC50 against Acetylcholinesterase is 4.33; in assay [1] it was 4.08.
With `COc1cccc2cc(-c3csc(NC(=S)Nc4ccc(C)cc4)n3)c(=O)oc12` [1-(4-(8-Methoxy-2-oxo-2H-chromen-3-yl)thiazol-2-yl)-3-(ptolyl)thiourea (f4)], the pIC50 against Acetylcholinesterase was 4.29; in assay [1], 4.44.
The like results for `COc1cccc2cc(-c3csc(NC(=O)Nc4ccc(C)cc4)n3)c(=O)oc12` [1-(4-(8-Methoxy-2-oxo-2H-chromen-3-yl)thiazol-2-yl)-3-(ptolyl)urea (e16)] were, in that order, 4.09 and 4.02.
The like results for `COc1cccc2cc(-c3csc(NC(=S)Nc4ccccc4)n3)c(=O)oc12` [1-(4-(8-Methoxy-2-oxo-2H-chromen-3-yl)thiazol-2-yl)-3-phenylthiourea (f5)] were, in that order, 4.34 and 4.66.
As for `COc1cccc2cc(-c3csc(NC(=O)Nc4ccccc4)n3)c(=O)oc12` [1-(4-(8-Methoxy-2-oxo-2H-chromen-3-yl)thiazol-2-yl)-3-phenylurea (e17)], the figures for the pIC50 (on Acetylcholinesterase; in assay [1]) were 4.08 and 4.11, respectively.
For `O=C(Nc1ccc(Br)cc1)Nc1nc(-c2cc3ccccc3oc2=O)cs1` [1-(4-Bromophenyl)-3-(4-(2-oxo-2H-chromen-3-yl)thiazol-2-yl)urea (e12)], the pIC50 at Acetylcholinesterase was 3.92; in assay [1] it was 4.02.
The like results for `O=C(Nc1ccc(Br)cc1)Nc1nc(-c2cc3cc([N+](=O)[O-])ccc3oc2=O)cs1` [1-(4-Bromophenyl)-3-(4-(6-nitro-2-oxo-2H-chromen-3-yl)thiazol-2-yl)urea (e33)] were, in that order, 4.34 and 4.03.
`O=c1oc2ccccc2cc1-c1csc(NC(=S)Nc2ccc(Cl)cc2)n1` [1-(4-Chlorophenyl)-3-(4-(2-oxo-2H-chromen-3-yl)thiazol-2-yl)thiourea (f2)]: the results for the pIC50 (at Acetylcholinesterase; in assay [1]) were 5.12 and 4.61, respectively.
The like results for `O=C(Nc1ccc(Cl)cc1)Nc1nc(-c2cc3ccccc3oc2=O)cs1` [1-(4-Chlorophenyl)-3-(4-(2-oxo-2H-chromen-3-yl)thiazol-2-yl)urea (e11)] were, in that order, 4.42 and 4.05.
Regarding `O=C(Nc1ccc(Cl)cc1)Nc1nc(-c2cc3cc([N+](=O)[O-])ccc3oc2=O)cs1` [1-(4-Chlorophenyl)-3-(4-(6-nitro-2-oxo-2H-chromen-3-yl)thiazol-2-yl)urea (e32)], the pIC50 against Acetylcholinesterase was 3.89; in assay [1], 4.11.
In the case of `O=C(Nc1ccc(F)cc1)Nc1nc(-c2cc3ccccc3oc2=O)cs1` [1-(4-Fluorophenyl)-3-(4-(2-oxo-2H-chromen-3-yl)thiazol-2-yl)urea (e9)], the pIC50 was 4.00 at Acetylcholinesterase and 4.07 in assay [1].
Regarding `O=C(Nc1ccc(F)cc1)Nc1nc(-c2cc3cc([N+](=O)[O-])ccc3oc2=O)cs1` [1-(4-Fluorophenyl)-3-(4-(6-nitro-2-oxo-2H-chromen-3-yl)thiazol-2-yl)urea (e31)], the negative logarithm of the IC50 (pIC50) at Acetylcholinesterase was 3.87; in assay [1], 5.31.
Take `COc1cccc2cc(-c3csc(NC(=O)Nc4ccc(F)cc4)n3)c(=O)oc12` [1-(4-Fluorophenyl)-3-(4-(8-methoxy-2-oxo-2H-chromen-3-yl)thiazol-2-yl)urea (e22)]: the pIC50 is 3.94 against Acetylcholinesterase and 4.20 in assay [1].
In the case of `O=C(Nc1ccc(I)cc1)Nc1nc(-c2cc3ccccc3oc2=O)cs1` [1-(4-Iodophenyl)-3-(4-(2-oxo-2H-chromen-3-yl)thiazol-2-yl)urea (e13)], the pIC50 against Acetylcholinesterase was 4.04; in assay [1], 3.95.
As for `O=C(Nc1ccc(I)cc1)Nc1nc(-c2cc3cc([N+](=O)[O-])ccc3oc2=O)cs1` [1-(4-Iodophenyl)-3-(4-(6-nitro-2-oxo-2H-chromen-3-yl)thiazol-2-yl)urea (e34)], the pIC50 on Acetylcholinesterase was 4.57; in assay [1], 4.01.
As for `COc1cccc2cc(-c3csc(NC(=O)Nc4ccc(I)cc4)n3)c(=O)oc12` [1-(4-Iodophenyl)-3-(4-(8-methoxy-2-oxo-2H-chromen-3-yl)thiazol-2-yl)urea (e26)], the pIC50 against Acetylcholinesterase is 4.21; in assay [1] it was 3.80.
The like results for `COc1ccc(NC(=O)Nc2nc(-c3cc4ccccc4oc3=O)cs2)cc1` [1-(4-Methoxyphenyl)-3-(4-(2-oxo-2H-chromen-3-yl)thiazol-2-yl)urea (e3)] were, in that order, 4.02 and 4.08.
With `COc1ccc(NC(=O)Nc2nc(-c3cc4cc([N+](=O)[O-])ccc4oc3=O)cs2)cc1` [1-(4-Methoxyphenyl)-3-(4-(6-nitro-2-oxo-2H-chromen-3-yl)thiazol-2-yl)urea (e28)], the negative-log IC50 (pIC50) at Acetylcholinesterase was under 3.70; in assay [1] it was 3.93.
For the molecule `O=C(Nc1ccc([N+](=O)[O-])cc1)Nc1nc(-c2cc3ccccc3oc2=O)cs1` [1-(4-Nitrophenyl)-3-(4-(2-oxo-2H-chromen-3-yl)thiazol-2-yl)urea (e6)], the pIC50 on Acetylcholinesterase is 4.13; in assay [1], 4.28.
The like results for `Cc1ccc(NC(=O)Nc2nc(-c3cc4ccccc4oc3=O)cs2)cc1` [1-(p-tolyl)-3-(4-(2-oxo-2H-chromen-3-yl)thiazol-2-yl)urea (e4)] were, in that order, 4.09 and 4.26.
In the case of `O=C(Nc1ccccc1)Nc1nc(-c2cc3ccccc3oc2=O)cs1` [1-Phenyl-3-(4-(2-oxo-2H-chromen-3-yl)thiazol-2-yl)urea (e5)], the pIC50 was 4.14 on Acetylcholinesterase and 4.13 in assay [1].
